According to ChEMBL document CHEMBL3758105 (J Med Chem, 2016):

Target: CYP2C9 (Homo sapiens, UniProt P11712)
Test: Inhibition of CYP2C9 in human liver microsomes assessed as reduction of diclofenac metabolism at 3 uM after 8 mins
Format: ADME
Conditions: probe diclofenac

Chain of CYP2C9 (P11712 whole entry): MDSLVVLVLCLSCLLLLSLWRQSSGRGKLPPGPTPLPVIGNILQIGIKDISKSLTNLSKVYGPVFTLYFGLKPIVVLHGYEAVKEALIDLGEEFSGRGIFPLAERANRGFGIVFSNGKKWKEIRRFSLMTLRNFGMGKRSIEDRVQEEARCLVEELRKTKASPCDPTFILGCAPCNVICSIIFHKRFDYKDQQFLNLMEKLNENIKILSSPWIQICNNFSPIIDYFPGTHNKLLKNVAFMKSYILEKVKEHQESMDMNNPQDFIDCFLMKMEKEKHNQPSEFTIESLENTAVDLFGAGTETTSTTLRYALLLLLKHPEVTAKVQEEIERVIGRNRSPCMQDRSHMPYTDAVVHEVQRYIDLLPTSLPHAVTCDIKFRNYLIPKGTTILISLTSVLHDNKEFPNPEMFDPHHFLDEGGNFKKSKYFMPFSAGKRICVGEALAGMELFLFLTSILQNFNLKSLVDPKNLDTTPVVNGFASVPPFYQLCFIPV

inhibition at 8 min, 3 µM	SMILES
90%	Cc1cc(-c2nnn(C[C@H]3CC[C@H](CO)CC3)n2)cc(C(=O)NCc2ccc(F)c(Cl)c2)n1
39%	COc1cc(CNC(=O)c2cc(-c3nnn(C[C@H]4CC[C@H](CO)CC4)n3)cc(C)n2)ccc1F
94%	Cc1cc(-c2nnn(C[C@H]3CC[C@H](CO)CC3)n2)cc(C(=O)NCc2cccc(C(F)(F)F)c2)n1

Target: Stromelysin-1 (Homo sapiens, UniProt P08254)
Sequence (P08254 whole entry, the tested form may be a part): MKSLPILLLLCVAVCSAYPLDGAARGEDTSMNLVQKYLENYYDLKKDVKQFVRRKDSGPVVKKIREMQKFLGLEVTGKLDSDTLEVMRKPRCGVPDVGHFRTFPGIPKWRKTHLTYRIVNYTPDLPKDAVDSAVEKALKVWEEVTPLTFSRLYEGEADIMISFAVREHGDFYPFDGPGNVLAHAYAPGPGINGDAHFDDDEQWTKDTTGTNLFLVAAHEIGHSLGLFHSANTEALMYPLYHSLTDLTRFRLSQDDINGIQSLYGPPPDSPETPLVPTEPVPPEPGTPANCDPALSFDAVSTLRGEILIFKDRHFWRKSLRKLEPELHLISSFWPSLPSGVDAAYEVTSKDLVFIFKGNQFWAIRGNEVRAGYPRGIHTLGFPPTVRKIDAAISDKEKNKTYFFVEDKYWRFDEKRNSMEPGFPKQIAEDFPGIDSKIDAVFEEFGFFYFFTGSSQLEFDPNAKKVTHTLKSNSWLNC
Test: Inhibition of MMP3 (unknown origin) catalytic domain using MCA-Arg-Pro-Leu-Gly-Leu-Dpa-Ala-Arg-Glu-Arg-NH2 as substrate preincubated for 60 mins followed by substrate addition by fluorescence assay
Conditions: not given

Ki	SMILES
> 10 µM	COc1cccc(CNC(=O)c2cc(-c3nnn(C[C@H]4CC[C@H](O)CC4)n3)cc(C)n2)c1
7.21 µM	COc1cccc(CNC(=O)c2cc(-c3nnn(C[C@H]4CC[C@H](C#N)CC4)n3)cc(C)n2)c1
> 10 µM	COc1cccc(CNC(=O)c2cc(-c3nnn(C[C@H]4CC[C@@H](O)CC4)n3)cc(C)n2)c1
> 10 µM	COc1cccc(CNC(=O)c2cc(-c3nnn(CC4CCN(S(C)(=O)=O)CC4)n3)cc(C)n2)c1
> 10 µM	COc1cccc(CNC(=O)c2cc(-c3nnn(C[C@H]4CC[C@@H](NS(C)(=O)=O)CC4)n3)cc(C)n2)c1
8.73 µM	COc1cccc(CNC(=O)c2cc(-c3nnn(C[C@H]4CC[C@@H](CO)CC4)n3)cc(C)n2)c1
> 10 µM	COc1cccc(CNC(=O)c2cc(-c3nnn(C[C@H]4CC[C@@H](NC(C)=O)CC4)n3)cc(C)n2)c1
> 10 µM	COc1cccc(CNC(=O)c2cc(-c3nnn(CC4CCN(C(C)=O)CC4)n3)cc(C)n2)c1
> 10 µM	COc1cccc(CNC(=O)c2cc(-c3nnn(C[C@H]4CC[C@H](C(=O)O)CC4)n3)cc(C)n2)c1
> 10 µM	COc1cccc(CNC(=O)c2cc(-c3nnn(CC4CCCOC4)n3)cc(C)n2)c1 (racemic)
> 10 µM	COc1cccc(CNC(=O)c2cc(-c3nnn(CC4CCCCO4)n3)cc(C)n2)c1 (single isomer, unassigned; (+))

Target: Matrix metalloproteinase-14 (Homo sapiens, UniProt P50281)
Test: Inhibition of MMP14 (unknown origin) catalytic domain using MCA-Arg-Pro-Leu-Gly-Leu-Dpa-Ala-Arg-Glu-Arg-NH2 as substrate preincubated for 60 mins followed by substrate addition by fluorescence assay
Conditions: not given

IC50	SMILES
10 µM	CNC(=O)[C@@H](NC(=O)[C@H](CC(C)C)[C@H](O)C(=O)NO)C(C)(C)C

System: not listed separately
Test: Half life of the compound assessed as compound rearrangement
Format: physicochemical
Conditions: not given

half-life	SMILES
30 min	O=C(O)Cc1ccccc1Nc1c(Cl)cccc1Cl [DICLOFENAC]

Target: Collagenase 3 (Homo sapiens, UniProt P45452)
Test: Inhibition of full length human recombinant MMP13 using MCA-Arg-Pro-Leu-Gly-Leu-Dpa-Ala-Arg-Glu-Arg-NH2 as substrate preincubated for 60 mins followed by substrate addition by fluorescence assay
Conditions: not given

Ki	SMILES
0.0212 µM	COc1cccc(CNC(=O)c2cc(-c3nnn(C[C@H]4CC[C@H](C(N)=O)CC4)n3)cc(C)n2)c1
0.0045 µM	COc1cccc(CNC(=O)c2cc(-c3nnn(C[C@H]4CC[C@H](O)CC4)n3)cc(C)n2)c1
0.0027 µM	COc1cccc(CNC(=O)c2cc(-c3nnn(C[C@H]4CC[C@H](C#N)CC4)n3)cc(C)n2)c1
0.0109 µM	COc1cccc(CNC(=O)c2cc(-c3nnn(C[C@H]4CC[C@@H](O)CC4)n3)cc(C)n2)c1
0.0058 µM	COc1cccc(CNC(=O)c2cc(-c3nnn(CC4CCN(S(C)(=O)=O)CC4)n3)cc(C)n2)c1
0.11 µM	Cc1cc(-c2nnn(C[C@H]3CC[C@H](CO)CC3)n2)cc(C(=O)NCc2cccc(F)c2)n1
0.0385 µM	Cc1cc(-c2nnn(C[C@H]3CC[C@H](CO)CC3)n2)cc(C(=O)NCc2cccc(Cl)c2)n1
0.0082 µM	COc1cccc(CNC(=O)c2cc(-c3nnn(C[C@H]4CC[C@@H](NS(C)(=O)=O)CC4)n3)cc(C)n2)c1
0.0041 µM	COc1cccc(CNC(=O)c2cc(-c3nnn(C[C@H]4CC[C@@H](CO)CC4)n3)cc(C)n2)c1
0.0014 µM	COc1cccc(CNC(=O)c2cc(-c3nnn(C[C@H]4CC[C@@H](NC(C)=O)CC4)n3)cc(C)n2)c1
0.004 µM	Cc1cc(-c2nnn(C[C@H]3CC[C@H](CO)CC3)n2)cc(C(=O)NCc2ccc(F)c(Cl)c2)n1
0.0012 µM	COc1cc(CNC(=O)c2cc(-c3nnn(C[C@H]4CC[C@H](CO)CC4)n3)cc(C)n2)ccc1F
0.0238 µM	Cc1cc(-c2nnn(C[C@H]3CC[C@H](CO)CC3)n2)cc(C(=O)NCc2cccc(C(F)(F)F)c2)n1
0.0166 µM	COc1cccc(CNC(=O)c2cc(-c3nnn(CC4CCN(C(C)=O)CC4)n3)cc(C)n2)c1
0.0165 µM	COc1cccc(CNC(=O)c2cc(-c3nnn(CC4CCCOC4)n3)cc(C)n2)c1 (racemic)
0.0168 µM	COc1cccc(CNC(=O)c2cc(-c3nnn(CC4CCCCO4)n3)cc(C)n2)c1 (single isomer, unassigned; (+))
